The assay concerns the target Sodium channel protein type 9 subunit alpha (Homo sapiens, UniProt Q15858). The assay is described as follows: EFS-FRET Assay: This screen is used to determine the effects of compounds on human Nav1.7 channels, utilizing electrical field stimulation (EFS) system in 96-well plate format on FDSS (Hamamatsu Photonics) platform. The changes of membrane potential are monitored with FRET dye pair, DiSBAC2(3) and PTS 18.

The IC50 is the point on the concentration scale where inhibition reaches its midpoint. Higher therefore signals a need for much substance.

Sequence of Sodium channel protein type 9 subunit alpha (Q15858 whole entry): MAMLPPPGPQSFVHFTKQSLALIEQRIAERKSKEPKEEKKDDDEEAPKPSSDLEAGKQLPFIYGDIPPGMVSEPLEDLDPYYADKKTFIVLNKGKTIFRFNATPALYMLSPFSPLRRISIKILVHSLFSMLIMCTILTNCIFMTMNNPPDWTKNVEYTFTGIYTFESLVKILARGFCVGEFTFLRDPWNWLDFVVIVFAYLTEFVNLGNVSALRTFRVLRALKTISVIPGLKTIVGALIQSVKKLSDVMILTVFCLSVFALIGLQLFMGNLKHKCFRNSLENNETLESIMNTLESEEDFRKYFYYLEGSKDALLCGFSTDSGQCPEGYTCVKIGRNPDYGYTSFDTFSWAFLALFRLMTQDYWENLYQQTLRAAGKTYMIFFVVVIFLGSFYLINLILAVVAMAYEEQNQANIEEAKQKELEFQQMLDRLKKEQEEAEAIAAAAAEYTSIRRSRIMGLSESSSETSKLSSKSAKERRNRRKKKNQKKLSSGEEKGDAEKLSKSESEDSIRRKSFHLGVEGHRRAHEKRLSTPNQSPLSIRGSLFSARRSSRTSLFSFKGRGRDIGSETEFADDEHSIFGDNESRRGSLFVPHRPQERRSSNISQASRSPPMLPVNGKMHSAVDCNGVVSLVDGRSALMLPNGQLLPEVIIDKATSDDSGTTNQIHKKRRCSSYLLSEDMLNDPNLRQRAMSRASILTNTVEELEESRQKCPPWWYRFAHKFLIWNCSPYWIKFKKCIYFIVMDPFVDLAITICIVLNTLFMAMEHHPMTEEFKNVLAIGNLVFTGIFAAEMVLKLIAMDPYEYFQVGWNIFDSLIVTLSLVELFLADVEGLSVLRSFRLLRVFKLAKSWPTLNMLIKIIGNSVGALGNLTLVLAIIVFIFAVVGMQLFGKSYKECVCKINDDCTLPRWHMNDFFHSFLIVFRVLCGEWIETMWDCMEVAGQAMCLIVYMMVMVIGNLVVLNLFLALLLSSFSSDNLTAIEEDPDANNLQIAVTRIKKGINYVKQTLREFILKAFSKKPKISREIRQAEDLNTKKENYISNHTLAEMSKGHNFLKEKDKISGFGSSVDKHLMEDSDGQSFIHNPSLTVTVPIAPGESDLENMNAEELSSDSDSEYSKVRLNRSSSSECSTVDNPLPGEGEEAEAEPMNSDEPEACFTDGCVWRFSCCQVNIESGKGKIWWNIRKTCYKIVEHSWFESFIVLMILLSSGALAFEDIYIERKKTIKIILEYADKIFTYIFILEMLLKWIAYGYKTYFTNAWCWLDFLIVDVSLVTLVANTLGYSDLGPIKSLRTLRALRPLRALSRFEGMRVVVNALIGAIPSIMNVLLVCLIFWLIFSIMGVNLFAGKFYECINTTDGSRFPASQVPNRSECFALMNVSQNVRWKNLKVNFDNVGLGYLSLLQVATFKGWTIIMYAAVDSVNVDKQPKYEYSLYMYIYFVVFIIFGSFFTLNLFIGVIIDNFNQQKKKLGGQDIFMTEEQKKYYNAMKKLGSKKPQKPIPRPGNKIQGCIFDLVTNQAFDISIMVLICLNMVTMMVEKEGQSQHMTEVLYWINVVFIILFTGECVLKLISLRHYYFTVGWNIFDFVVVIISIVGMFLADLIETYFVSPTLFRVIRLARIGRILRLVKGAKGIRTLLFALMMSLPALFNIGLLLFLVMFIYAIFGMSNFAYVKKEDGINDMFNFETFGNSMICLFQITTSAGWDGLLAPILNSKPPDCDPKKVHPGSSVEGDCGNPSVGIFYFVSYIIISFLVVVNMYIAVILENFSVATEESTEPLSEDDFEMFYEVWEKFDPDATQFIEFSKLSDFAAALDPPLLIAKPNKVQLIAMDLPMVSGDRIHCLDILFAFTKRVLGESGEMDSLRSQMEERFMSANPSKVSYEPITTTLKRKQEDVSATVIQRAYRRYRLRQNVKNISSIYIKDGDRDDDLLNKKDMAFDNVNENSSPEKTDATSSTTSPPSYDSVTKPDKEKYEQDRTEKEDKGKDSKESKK

As for `CS(=O)(=O)NC(=O)c1ccc(COc2cc(F)cc(-c3ncc(OCC4CC4)cn3)c2)cc1`, the IC50 was less than 500 nM. Consider `CN(CC1CC1)c1cc(-c2cccc(OCc3ccc(C(=O)NS(C)(=O)=O)cc3F)c2)ccn1`, for which the concentration for half-maximal inhibition (IC50) is less than 500 nM. For `CS(=O)(=O)NC(=O)c1ccc(COc2cc(F)cc(-c3cc(OCC4CC4)ncn3)c2)cc1`, the IC50 is less than 500 nM. `CN(CCO)Cc1cc(OCC2CC2)cc(-c2cc(F)cc(OCc3ccc(C(=O)NS(C)(=O)=O)cc3F)c2)c1` had an IC50 of less than 500 nM.

`CS(=O)(=O)NC(=O)c1ccc(COc2cccc(-c3ncc(OCC4CC4)cc3F)c2)c(F)c1`: the half-inhibitory concentration (IC50) is less than 500 nM. The value for `Cc1c(-c2cc(OCc3ccc(C(=O)NS(C)(=O)=O)cc3F)ccc2F)ccnc1OCC1CC1` was less than 500 nM. Under `CS(=O)(=O)NC(=O)c1ccc(COc2cccc(-c3cnc(OCC4CCC4)cn3)c2)cc1` stands less than 500 nM; under `CN(C)C(=O)c1cc(OCC2CC2)cc(-c2cc(F)cc(OCc3ccc(C(=O)NS(C)(=O)=O)cc3F)c2)c1`, less than 500 nM. Turning to `CC(C)S(=O)(=O)NC(=O)c1ccc(COc2cc(F)cc(-c3ccc(OCC4CC4)nc3)c2)cc1`, the IC50 is less than 500 nM. `CCOC(=O)N1CCC(COc2ccc(-c3cccc(OCc4ccc(C(=O)NS(C)(=O)=O)cc4)c3)cn2)CC1` returned an IC50 of less than 500 nM. Turning to `CS(=O)(=O)NC(=O)c1ccc(COc2cc(F)cc(-c3ncc(OCC4CCC4)cn3)c2)cc1`, the IC50 was less than 500 nM.

`Cc1cc(OCC2CCC2)cnc1-c1cccc(OCc2ccc(C(=O)NS(C)(=O)=O)cc2F)c1` gave a half-maximal inhibitory concentration (IC50) of less than 500 nM.

`Cc1c(OCC2CC2)ccnc1-c1cccc(OCc2ccc(C(=O)NS(C)(=O)=O)cc2F)c1` displayed a half-inhibitory concentration (IC50) of less than 500 nM. In turn, `CC(C)(C)OC(=O)N1CC(COc2ccc(-c3cccc(OCc4ccc(C(=O)NS(C)(=O)=O)cc4F)c3)cn2)C1` gave a 50% inhibitory concentration (IC50) of less than 500 nM. Under `CS(=O)(=O)NC(=O)c1ccc(COc2cc(-c3ccccc3)cc(-c3ccc(OCC4CC4)nc3)c2)cc1` stands less than 500 nM. Take `CS(=O)(=O)NC(=O)c1ccc(COc2cc(F)cc(-c3cnc(OCC4CC4)cn3)c2)cc1`: the IC50 was less than 500 nM. On to `CS(=O)(=O)NC(=O)c1ccc(COc2cc(F)cc(-c3cncc(OCC4CC4)n3)c2)cc1`, for which the IC50 is less than 500 nM. Under `CS(=O)(=O)NC(=O)c1ccc(COc2cc(F)cc(-c3cnc(OCC4CCC4)c(CO)c3)c2)c(F)c1` stands less than 500 nM. As to `CS(=O)(=O)NC(=O)c1ccc(COc2ccc(F)c(-c3cccc(OCC4CC4)n3)c2)c(F)c1`, the IC50 was less than 500 nM.

The molecule `CS(=O)(=O)NC(=O)c1ccc(COc2cccc(-c3ccc(OCC4CCC4)nc3CO)c2)c(F)c1` registered a half-maximal inhibitory concentration (IC50) of less than 500 nM. `CCS(=O)(=O)NC(=O)c1ccc(COc2cc(F)cc(-c3ccc(OCC4CC4)nc3)c2)cc1`: the IC50 was less than 500 nM. `CS(=O)(=O)NC(=O)c1ccc(COc2cccc(-c3cnc(OCC4CCC4)cn3)c2)c(F)c1` came in with a 50% inhibitory concentration (IC50) of less than 500 nM. `CS(=O)(=O)NC(=O)c1ccc(COc2cc(F)cc(-c3cc(OCC(N)=O)cc(OCC4CC4)c3)c2)c(F)c1`: the half-inhibitory concentration (IC50) is less than 500 nM. Molecule `CS(=O)(=O)NC(=O)c1ccc(COc2cc(F)cc(-c3cccc(OCC4CC4)n3)c2)cc1` returned an IC50 of less than 500 nM. `Cc1c(-c2cccc(OCc3ccc(C(=O)NS(C)(=O)=O)cc3F)c2)ccnc1OCC1CC1` showed a half-maximal inhibitory concentration (IC50) of less than 500 nM. The molecule `CS(=O)(=O)NC(=O)c1ccc(COc2cc(F)cc(-c3ccnc(OCC4CC4)c3)c2)cc1` registered an IC50 of less than 500 nM.

`CS(=O)(=O)NC(=O)c1ccc(COc2cccc(-c3cc(OCC4CC4)ncn3)c2)cc1` yielded a 50% inhibitory concentration (IC50) of less than 500 nM. Consider `O=C(NS(=O)(=O)c1cccs1)c1ccc(COc2cc(F)cc(-c3ccc(OCC4CC4)nc3)c2)cc1`, for which the half-maximal inhibitory concentration (IC50) was less than 500 nM. Under `Cc1nc(OCC2CC2)ccc1-c1cc(F)cc(OCc2ccc(C(=O)NS(C)(=O)=O)cc2)c1` stands less than 500 nM.

`CS(=O)(=O)NC(=O)c1ccc(COc2cc(F)cc(-c3cc(OCC4CC4)cc(C(=O)N4CCOCC4)c3)c2)c(F)c1` displayed an IC50 of less than 500 nM. The molecule `CS(=O)(=O)NC(=O)c1ccc(COc2cc(F)cc(-c3cnc(OCC4CCC4)c(CO)c3)c2)cc1` had an IC50 of less than 500 nM. As to `CS(=O)(=O)NC(=O)c1ccc(COc2cccc(-c3ccnc(OCC4CC4)c3)c2)c(F)c1`, the IC50 was less than 500 nM. Consider `CS(=O)(=O)NC(=O)c1ccc(COc2cc(F)cc(-c3cncc(OCC4CC4)c3)c2)cc1`, for which the IC50 is less than 500 nM. In the case of `Cc1nc(OCC2CC2)ncc1-c1cccc(OCc2ccc(C(=O)NS(C)(=O)=O)cc2F)c1`, the half-inhibitory concentration (IC50) is less than 500 nM. `CS(=O)(=O)NC(=O)c1ccc(COc2ccc(F)c(-c3cnc(OCC4CC4)cn3)c2)c(F)c1` had an IC50 of less than 500 nM. With `CS(=O)(=O)NC(=O)c1ccc(COc2cccc(-c3ccc(OCC4CC4)cn3)c2)c(F)c1`, the IC50 is less than 500 nM.

Molecule `Cc1c(OCC2CC2)ncnc1-c1cc(F)cc(OCc2ccc(C(=O)NS(C)(=O)=O)cc2)c1` had an IC50 of less than 500 nM. As for `CS(=O)(=O)NC(=O)c1ccc(COc2cccc(-c3cnc(OCC4CCC4)c(CO)c3)c2)cc1`, the half-inhibitory concentration (IC50) was less than 500 nM. Under `Cc1cc(OCC2CCC2)cnc1-c1cccc(OCc2ccc(C(=O)NS(C)(=O)=O)cc2)c1` stands less than 500 nM. In turn, `O=C(NS(=O)(=O)CC1CC1)c1ccc(COc2cc(F)cc(-c3ccc(OCC4CC4)nc3)c2)cc1` displayed a half-inhibitory concentration (IC50) of less than 500 nM.

In turn, `CN(C)C(=O)COc1cc(OCC2CC2)cc(-c2cc(F)cc(OCc3ccc(C(=O)NS(C)(=O)=O)cc3F)c2)c1` yielded an IC50 of less than 500 nM. `COC1CN(C(=O)c2cc(OCC3CC3)cc(-c3cc(F)cc(OCc4ccc(C(=O)NS(C)(=O)=O)cc4F)c3)c2)C1` showed an IC50 of less than 500 nM. The value for `Cc1c(OCC2CC2)ccnc1-c1cc(F)cc(OCc2ccc(C(=O)NS(C)(=O)=O)cc2)c1` was less than 500 nM; that for `CS(=O)(=O)NC(=O)c1ccc(COc2cccc(-c3cccc(OCC4CC4)n3)c2)c(F)c1` was less than 500 nM.

With `CS(=O)(=O)NC(=O)c1ccc(COc2cccc(-c3ccc(OCC4CCC4)nc3CO)c2)cc1`, the IC50 is less than 500 nM. For `COCCOc1cc(OCC2CC2)cc(-c2cc(F)cc(OCc3ccc(C(=O)NS(C)(=O)=O)cc3F)c2)c1`, the IC50 was less than 500 nM. `CS(=O)(=O)NC(=O)c1ccc(COc2cccc(-c3cncc(OCC4CC4)c3)c2)c(F)c1` displayed an IC50 of less than 500 nM.

Turning to `CS(=O)(=O)NC(=O)c1ccc(COc2cccc(-c3cnc(OCC4CC4)nc3)c2)c(F)c1`, the IC50 is less than 500 nM.

Consider `Cc1cc(OCC2CC2)ncc1-c1cccc(OCc2ccc(C(=O)NS(C)(=O)=O)cc2F)c1`, for which the half-maximal inhibitory concentration (IC50) was less than 500 nM. For `Cc1cc(OCC2CC2)ncc1-c1cc(F)cc(OCc2ccc(C(=O)NS(C)(=O)=O)cc2)c1`, the IC50 was less than 500 nM. `Cc1c(-c2cc(F)cc(OCc3ccc(C(=O)NS(C)(=O)=O)cc3)c2)ccnc1OCC1CC1`: the concentration for half-maximal inhibition (IC50) is less than 500 nM. `CS(=O)(=O)NC(=O)c1ccc(COc2cccc(-c3cncc(OCC4CC4)n3)c2)cc1` gave a 50% inhibitory concentration (IC50) of less than 500 nM. As for `CN(CC1CC1)c1ncc(-c2cccc(OCc3ccc(C(=O)NS(C)(=O)=O)cc3F)c2)cn1`, the IC50 is less than 500 nM. Under `CS(=O)(=O)NC(=O)c1ccc(COc2cc(F)cc(-c3cnc(OCC4CC4)c(Cl)c3)c2)c(F)c1` stands less than 500 nM; under `CS(=O)(=O)NC(=O)c1ccc(COc2cccc(-c3cc(OCC4CC4)ncn3)c2)c(F)c1`, less than 500 nM; under `CS(=O)(=O)NC(=O)c1ccc(COc2cc(F)cc(-c3ncc(OCC4CC4)cc3F)c2)cc1`, less than 500 nM. Molecule `Cc1c(OCC2CC2)ncnc1-c1cccc(OCc2ccc(C(=O)NS(C)(=O)=O)cc2F)c1` yielded a half-maximal inhibitory concentration (IC50) of less than 500 nM. `CS(=O)(=O)NC(=O)c1ccc(COc2cccc(-c3cc(OCC4CC4)ccn3)c2)cc1`: the IC50 is less than 500 nM. Turning to `Cc1cc(OCC2CCC2)cnc1-c1cc(F)cc(OCc2ccc(C(=O)NS(C)(=O)=O)cc2)c1`, the 50% inhibitory concentration (IC50) was less than 500 nM.

On to `Cc1cc(OCC2CC2)cnc1-c1cccc(OCc2ccc(C(=O)NS(C)(=O)=O)cc2F)c1`, for which the IC50 was less than 500 nM. The molecule `CS(=O)(=O)NC(=O)c1ccc(COc2cccc(-c3cc(OCC4CC4)ccn3)c2)c(F)c1` displayed a 50% inhibitory concentration (IC50) of less than 500 nM. `Cc1c(OCC2CC2)ncnc1-c1cccc(OCc2ccc(C(=O)NS(C)(=O)=O)cc2)c1` registered a half-inhibitory concentration (IC50) of less than 500 nM. On to `CS(=O)(=O)NC(=O)c1ccc(COc2cc(F)cc(-c3ccc(OCC4CC4)cn3)c2)cc1`, for which the IC50 was less than 500 nM. The molecule `CS(=O)(=O)NC(=O)c1ccc(COc2cc(-c3cncnc3)cc(-c3ccc(OCC4CC4)nc3)c2)cc1` yielded an IC50 of less than 500 nM.

`CS(=O)(=O)NC(=O)c1ccc(COc2cc(F)cc(-c3cc(OCCO)cc(OCC4CC4)c3)c2)c(F)c1` returned an IC50 of less than 500 nM. The molecule `CS(=O)(=O)NC(=O)c1ccc(COc2cccc(-c3ccc(OCC4CCC4)nc3)c2)nc1` returned a half-maximal inhibitory concentration (IC50) of less than 500 nM. Regarding `O=C(NS(=O)(=O)C1CC1)c1ccc(COc2cc(F)cc(-c3ccc(OCC4CC4)nc3)c2)cc1`, the 50% inhibitory concentration (IC50) is less than 500 nM. The molecule `Cc1cc(OCC2CC2)cnc1-c1cc(F)cc(OCc2ccc(C(=O)NS(C)(=O)=O)cc2)c1` showed an IC50 of less than 500 nM. `CS(=O)(=O)NC(=O)c1ccc(COc2ccc(F)c(-c3cnc(OCC4CC4)c(Cl)c3)c2)c(F)c1` returned an IC50 of less than 500 nM. With `CS(=O)(=O)NC(=O)c1ccc(COc2cc(F)cc(-c3cc(OCC4CC4)ccn3)c2)cc1`, the 50% inhibitory concentration (IC50) was less than 500 nM. As for `Cn1cc(-c2cc(OCc3ccc(C(=O)NS(C)(=O)=O)cc3)cc(-c3ccc(OCC4CC4)nc3)c2)cn1`, the IC50 was less than 500 nM. The value for `Cc1nc(OCC2CC2)ccc1-c1cc(OCc2ccc(C(=O)NS(C)(=O)=O)cc2F)ccc1F` was less than 500 nM. The value for `Cc1cc(-c2cccc(OCc3ccc(C(=O)NS(C)(=O)=O)cc3F)c2)cnc1OCC1CC1` was less than 500 nM. Molecule `CS(=O)(=O)NC(=O)c1ccc(COc2cccc(-c3cnc(OCC4CC4)c(Cl)c3)c2)c(F)c1` yielded a concentration for half-maximal inhibition (IC50) of less than 500 nM. In the case of `CS(=O)(=O)NC(=O)c1ccc(COc2cccc(-c3cnc(OCC4CCC4)c(CO)c3)c2)c(F)c1`, the IC50 is less than 500 nM.

`CS(=O)(=O)NC(=O)c1ccc(COc2cc(-c3cccnc3)cc(-c3ccc(OCC4CC4)nc3)c2)cc1`: the IC50 is less than 500 nM. The value for `CS(=O)(=O)NC(=O)c1ccc(COc2cc(F)cc(-c3cnc(OCC4CC4)nc3)c2)cc1` was less than 500 nM.

Values taken from ChEMBL document CHEMBL5728485, “Biaryloxy derivatives as TTX-S blockers” (2021).
